How the values were obtained:
CDK1/Cyclin B1 = CDK1/Cyclin B1 (Homo sapiens, UniProt P06493); assay: CDK1/Cyclin B1 Biochemical Assay (TR-FRET), 0.015 mM ATP; settings: 0.15 μM Rb (Ser780)-biotin substrate, pH7.0, 60 min preincubation, 120 min reaction, room temperature
Procedure, shortened: (§1)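 Inhibitor concentrations up to 10 μM were preincubated with each cyclin–kinase complex for 60 minutes before ATP and biotinylated Rb (Ser780) substrate (0.15 μM) were added. After 120 minutes at room temperature, phosphorylation was quantified by HTRF and IC50 values were fitted with a four-parameter logistic equation.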

CDK2/Cyclin E1 = CDK2/Cyclin E1 (Homo sapiens, UniProt P24941); assay: CDK2/Cyclin E1 Biochemical Assay (TR-FRET), 0.060 mM ATP; settings: 0.15 μM Rb (Ser780)-biotin substrate, pH7.0, 60 min preincubation, 120 min reaction, room temperature
Procedure, shortened: as §1

CDK1/Cyclin B1, sequence (P06493 whole entry): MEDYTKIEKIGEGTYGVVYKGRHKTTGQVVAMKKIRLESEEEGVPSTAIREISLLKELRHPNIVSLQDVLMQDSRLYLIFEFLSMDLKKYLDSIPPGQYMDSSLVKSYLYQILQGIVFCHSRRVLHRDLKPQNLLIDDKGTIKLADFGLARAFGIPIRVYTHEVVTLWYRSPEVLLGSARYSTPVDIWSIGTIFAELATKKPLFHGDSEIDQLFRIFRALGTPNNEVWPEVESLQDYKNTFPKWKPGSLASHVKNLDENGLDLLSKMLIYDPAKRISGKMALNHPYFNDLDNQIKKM
CDK1/Cyclin B1, sequence (P14635 whole entry partner): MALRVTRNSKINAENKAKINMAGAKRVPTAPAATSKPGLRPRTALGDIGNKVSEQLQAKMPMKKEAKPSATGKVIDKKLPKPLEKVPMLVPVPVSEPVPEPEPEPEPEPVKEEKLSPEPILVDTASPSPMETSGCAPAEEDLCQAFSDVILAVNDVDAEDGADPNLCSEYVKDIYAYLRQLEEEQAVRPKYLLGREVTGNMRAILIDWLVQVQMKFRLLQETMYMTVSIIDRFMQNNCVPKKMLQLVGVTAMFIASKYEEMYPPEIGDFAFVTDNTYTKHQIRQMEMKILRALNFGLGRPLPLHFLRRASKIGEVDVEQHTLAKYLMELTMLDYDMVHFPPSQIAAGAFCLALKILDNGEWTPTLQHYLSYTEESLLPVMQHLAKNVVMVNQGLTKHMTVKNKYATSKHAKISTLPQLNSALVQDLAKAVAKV

Compound	IC50 (CDK1/Cyclin B1) [µM]	IC50 (CDK2/Cyclin E1) [µM]
C[C@@H](CO)NC(=O)O[C@H]1CC[C@@H](c2cc(Nc3ccc4c(c3)CS(=O)(=O)N4C)n[nH]2)C1 (relative stereo) [Example 324, cis-3-(3-((1-methyl-2,2-dioxido-1,3-dihydrobenzo[c]isothiazol-5-yl)amino)-1H-pyrazol-5-yl)cyclopentyl((S)-1-hydroxypropan-2-yl)carbamate]	0.083	0.0033
O=C(NC1CC2(CC2)C1)O[C@H]1CC[C@@H](c2cc(Nc3ccc4c(c3F)CNS4(=O)=O)n[nH]2)C1 (relative stereo) [Example 160, cis-3-(3-((4-fluoro-1,1-dioxido-2,3-dihydrobenzo[d]isothiazol-5-yl)amino)-1H-pyrazol-5-yl)cyclopentyl spiro[2.3]hexan-5-ylcarbamate]	0.579	0.105
CN1c2ccc(Nc3cc([C@@H]4CC[C@H](OC(=O)NCC5COC5)C4)[nH]n3)cc2CS1(=O)=O (relative stereo) [Example 237, cis-3-(3-((1-methyl-2,2-dioxido-1,3-dihydrobenzo[c]isothiazol-5-yl)amino)-1H-pyrazol-5-yl)cyclopentyl(oxetan-3-ylmethyl)carbamate]	0.435	0.046
COCC1(NC(=O)O[C@H]2CC[C@@H](c3cc(Nc4ccc5c(c4F)CNS5(=O)=O)n[nH]3)C2)CC1 (racemic) [Example 158, cis-3-(3-((4-fluoro-1,1-dioxido-2,3-dihydrobenzo[d]isothiazol-5-yl)amino)-1H-pyrazol-5-yl)cyclopentyl(1-(methoxymethyl)cyclopropyl)carbamate]	0.123	0.0031
CN1c2ccc(Nc3cc([C@@H]4CC[C@H](OC(=O)NC5CCC5)C4)[nH]n3)cc2CS1(=O)=O (racemic) [Example 227, cis-3-(3-((1-methyl-2,2-dioxido-1,3-dihydrobenzo[c]isothiazol-5-yl)amino)-1H-pyrazol-5-yl)cyclopentyl cyclobutylcarbamate]	0.249	0.005
[2H]C([2H])([2H])N1Cc2c(ccc(Nc3cc([C@@H]4CC[C@H](OC(=O)NC5(C)CC5)C4)[nH]n3)c2F)S1(=O)=O (single isomer, unassigned) [Example 132b, cis-3-(3-((4-fluoro-2-(methyl-d3)-1,1-dioxido-2,3-dihydrobenzo[d]isothiazol-5-yl)amino)-1H-pyrazol-5-yl)cyclopentyl(1-methylcyclopropyl)carbamate]	0.065	0.0019
CC(C)NC(=O)O[C@@H]1CC[C@H](c2cc(Nc3ccc4c(c3)S(=O)(=O)CN4C(=O)OC(C)(C)C)n[nH]2)C1 (relative stereo) [Example 318, cis-tert-butyl 6-((5-(3-((isopropylcarbamoyl)oxy)cyclopentyl)-1H-pyrazol-3-yl)amino)benzo[d]thiazole-3 (2H)-carboxylate 1,1-dioxide]	1.75	0.257
CC(=O)N1CCC(N2Cc3c(ccc(Nc4cc([C@@H]5CC[C@H](OC(=O)NC(C)C)C5)[nH]n4)c3F)S2(=O)=O)C1 (relative stereo) [Example 80, cis-3-(3-((2-(1-acetylpyrrolidin-3-yl)-4-fluoro-1,1-dioxido-2,3-dihydrobenzo[d]isothiazol-5-yl)amino)-1H-pyrazol-5-yl)cyclopentyl isopropylcarbamate]	0.767	0.01
COCCN1c2ccc(Nc3cc([C@@H]4CC[C@H](OC(=O)NC(C)C)C4)[nH]n3)cc2CS1(=O)=O (relative stereo) [Example 204, cis-3-(3-((1-(2-methoxyethyl)-2,2-dioxido-1,3-dihydrobenzo[c]isothiazol-5-yl)amino)-1H-pyrazol-5-yl)cyclopentyl isopropylcarbamate]	0.051	0.0018
CC[C@H](C)NC(=O)O[C@H]1CC[C@@H](c2cc(Nc3ccc4c(c3F)CS(=O)(=O)N4CC(F)(F)F)n[nH]2)C1 (single isomer, unassigned) [Example 265b]	0.026	0.0024
CCCNC(=O)O[C@H]1CC[C@@H](c2cc(Nc3ccc4c(c3)CS(=O)(=O)N4)n[nH]2)C1 [Example 195b]	0.067	0.017
[2H]C([2H])([2H])N1c2c(F)cc(Nc3cc([C@@H]4CC[C@H](OC(=O)NC5(C)CC5)C4)[nH]n3)cc2CS1(=O)=O (single isomer, unassigned) [Example 291b, cis-3-(3-((7-fluoro-1-(methyl-d3)-2,2-dioxido-1,3-dihydrobenzo[c]isothiazol-5-yl)amino)-1H-pyrazol-5-yl)cyclopentyl(1-methylcyclopropyl)carbamate]	0.048	0.0013
CCCNC(=O)O[C@@H]1CC[C@H](c2cc(Nc3ccc4c(c3F)CS(=O)(=O)N4CC(F)(F)F)n[nH]2)C1 [Example 266a]	0.096	0.0033

Now from value to compound:

IC50 (CDK1/Cyclin B1) [µM]	IC50 (CDK2/Cyclin E1) [µM]	Compound
0.375	0.0045	CC(C)NC(=O)O[C@H]1CC[C@@H](c2cc(Nc3ccc4c(c3F)CNS4(=O)=O)n[nH]2)C1 (single isomer, unassigned) [Example 9a, cis-3-(3-((4-fluoro-1,1-dioxido-2,3-dihydrobenzo[d]isothiazol-5-yl)amino)-1H-pyrazol-5-yl)cyclopentyl isopropylcarbamate]
1.54	0.121	CC(C)NC(=O)O[C@H]1CC[C@@H](c2cc(Nc3cc4c(cc3F)C(C)(C)NS4(=O)=O)n[nH]2)C1 (relative stereo) [Example 8, cis-3-(3-((5-fluoro-3,3-dimethyl-1,1-dioxido-2,3-dihydrobenzo[d]isothiazol-6-yl)amino)-1H-pyrazol-5-yl)cyclopentyl isopropylcarbamate]
0.113	0.0022	CC(C)NC(=O)O[C@H]1CC[C@@H](c2cc(Nc3cc(F)c4c(c3)CNS4(=O)=O)n[nH]2)C1 (relative stereo) [Example 29, cis-3-(3-((7-fluoro-1,1-dioxido-2,3-dihydrobenzo[d]isothiazol-5-yl)amino)-1H-pyrazol-5-yl)cyclopentyl isopropylcarbamate]
0.644	0.01	CC(C)NC(=O)O[C@H]1CC[C@@H](c2cc(Nc3ccc4c(c3O)CNS4(=O)=O)n[nH]2)C1 (relative stereo) [Example 405, cis-3-(3-((4-hydroxy-1,1-dioxido-2,3-dihydrobenzo[d]isothiazol-5-yl)amino)-1H-pyrazol-5-yl)cyclopentyl isopropylcarbamate]
0.04	0.0003	CC[C@H](C)NC(=O)O[C@H]1CC[C@@H](c2cc(Nc3ccc4c(c3F)C(C)NS4(=O)=O)n[nH]2)C1 (single isomer, unassigned) [Example 54c]
0.239	0.009	CC1(NC(=O)O[C@H]2CC[C@@H](c3cc(Nc4cc5c(cc4F)N(CCO)S(=O)(=O)C5)n[nH]3)C2)CC1 (relative stereo) [Example 299, cis-3-(3-((6-fluoro-1-(2-hydroxyethyl)-2,2-dioxido-1,3-dihydrobenzo[c]isothiazol-5-yl)amino)-1H-pyrazol-5-yl)cyclopentyl(1-methylcyclopropyl)carbamate]
0.13	0.0033	CC(C)NC(=O)O[C@H]1CC[C@@H](c2cc(Nc3ccc4c(c3F)CN(C)S4(=O)=O)n[nH]2)C1 (single isomer, unassigned) [Example 121b, cis-3-(3-((4-fluoro-2-methyl-1,1-dioxido-2,3-dihydrobenzo[d]isothiazol-5-yl)amino)-1H-pyrazol-5-yl)cyclopentyl isopropylcarbamate]

— patent publication US20260297080A1, “BICYCLIC COMPOUNDS AS CDK INHIBITORS” (BeOne Medicines I GmbH, priority 2022, published 2026)
